Source: patent US20240238378A1, “METHODS AND CCK-B RECEPTOR AGONISTS FOR TREATING TINNITUS” (City University of Hong Kong, priority 2023, published 2024)

Tests used:
[1] = in vivo
[2] = tested on: auditory thalamocortical pathway; assay: HFS-induced thalamocortical LTP in CCK-KO mice with infusion into ACx (fEPSP slope); assay type: in vivo; conditions: HT-267 5 μM, 0.5 μl into ACx, n=6, p<0.0001, FIG. 5C
From the text: The electrical stimulation is generated by an ISO-Flex isolator (A.M.P.I., Israel), which is controlled by a multifunction processor (RX6, TDT). The electrical current pulses for baseline test are 0.5 ms, 50-150 μA and presented every 10 s. The theta burst stimulation (TBS) contains four trails of 10 bursts at 5 Hz with the interval of 10 s between the trails, and each burst consists of 5 pulses at 100 Hz.
[…], two customized microelectrode arrays with four tungsten electrodes each, impedance: 0.5-1 MS2 (recording), and 200-500 kΩ (ES) (FHC, U.S.), are used for the auditory cortical neuronal activity recording and medial geniculate body ventral division (MGv) electrical stimulation and monitoring, respectively. […] 70 dB, 100 ms, noise bursts are presented every 10 s during the insertion of the electrode arrays, and neuronal activities are monitored as the electrode arrays are lowered until robust noise responses are achieved on both arrays. The final stimulating and recording positions are determined by maximizing the cortical field excitatory postsynaptic potential (fEPSP) amplitude triggered by the electrical stimulation in MGv.
The fEPSPs, which are elicited by 0.5 ms electrical current pulses, are amplified (×1000) and filtered (1 Hz-5 kHz), recorded with a 25 kHz sampling rate, and stored in a PC by OpenEx software (TDT). Before the recording, an input-output function is measured. […]

[3] = target: T1, CCKBR (Homo sapiens, UniProt P32239); assay: Calcium response (Fluo-8 No Wash Calcium Assay Kit) in GPCR-overexpressing CHO cells; assay type: cell-based
T1 construct: expressed in transfected cells; host or cells: CHO cells (CHO-CCKBR)
T1 sequence (P32239 1-447): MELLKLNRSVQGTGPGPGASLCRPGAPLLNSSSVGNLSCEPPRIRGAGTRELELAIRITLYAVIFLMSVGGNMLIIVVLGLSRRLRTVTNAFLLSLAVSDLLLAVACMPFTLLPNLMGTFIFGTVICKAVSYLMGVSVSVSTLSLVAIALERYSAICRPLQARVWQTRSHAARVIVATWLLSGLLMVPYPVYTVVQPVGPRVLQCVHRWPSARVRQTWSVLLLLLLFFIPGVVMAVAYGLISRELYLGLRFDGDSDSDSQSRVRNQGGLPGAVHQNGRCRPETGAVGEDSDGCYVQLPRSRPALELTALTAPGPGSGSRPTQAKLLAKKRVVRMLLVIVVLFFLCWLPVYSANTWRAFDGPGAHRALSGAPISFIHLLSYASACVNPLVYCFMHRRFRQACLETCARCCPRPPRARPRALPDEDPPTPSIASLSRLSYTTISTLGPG
Method: In vitro screening system, HT-267 have been tested and measured calcium response by Fluo-8 No Wash Calcium Assay Kit in GPCRs overexpressed CHO cells, including CHO-CCKBR, CHO-CCKAR, CHO-HTR2B cells. These tests and measurements are performed as described in CN 113929737 A by Tortorella, et al., assigned to Regenerative Medicine and Health Innovation Centre Co., Ltd., et al., published on Jan. 14, 2022.

[4] = tested on: noise-induced tinnitus mice; assay: Tinnitus mouse model, gap pre-pulse inhibition of the acoustic startle reflex (GPIAS) with sound therapy; assay type: in vivo; conditions: 0.2 mg/kg intraperitoneal, one week (4 treatment days), combined with sound exposure; 12.6k, 16k, 20.1k, 28.7k Hz; FIGS. 6F-6I
Method: HT-267 is tested in the tinnitus mouse model. […] 7-9 weeks after tinnitus induction, more than 50% of mice developed tinnitus.
The inventors use the standard approach for assessing tinnitus in a rodent model, namely gap pre-pulse inhibition of the acoustic startle reflex (GPIAS) (FIGS. 2A-B). […] (Upper) Background sound and startle speakers are placed 10 and 13 cm respectively, from the point of microphone calibration. Signals from three force sensors placed under the testing tube in a triangular formation are averaged in a custom-made circuit and transmitted to TDT digital signal processor (DSP) for further analysis. (Lower) Timeline of a single GPIAS testing session. A GPIAS testing session consists of 3 blocks, lasting 36 minutes in total. The first block is the acclimation phase, lasting five minutes, where white noise is played from the “Cue” speaker for 5 minutes. Block two is the startle acclimation phase. To prevent outlier trials at the beginning of the testing session, 10 startle-only trials without any background sound are delivered to the animal. After block two, block three takes place, lasting 30 minutes. The 30 minute-long GPIAS session consisting of 300 individual trials (Five different background (BG) frequencies tested, for both GAP and NO_GAP conditions with 30 repeats for each BG frequency×GAP/NO_GAP condition pair). Each square represents one minute in the timeline. […]

[5] = tested on: auditory thalamocortical pathway; assay: Thalamocortical LTP induction by CCK injection in the auditory cortex with low-frequency stimulation of MGv (fEPSP slope); assay type: in vivo; conditions: CCK 1 μM, 1 μl into ACx, n=8, p<0.001, FIG. 3E
[6] = elimination half-life (t1/2) in plasma

## CSCC[C@H](NC(=O)C(N)Cc1c[nH]c2ccccc12)C(=O)NC(CC(=O)O)C(=O)N[C@@H](Cc1ccccc1)C(N)=O (some centres unmarked) [CCK-4, Cholecystokinin-4, reference compound]
[1]; [6]
  half-life: ~13 min

## CSCCC(NC(=O)[C@H](N)Cc1c[nH]c2ccccc12)C(=O)N[C@@H](CC(=O)O)C(=O)N[C@@H](Cc1cccc(Br)c1)C(N)=O (some centres unmarked) [HT-267]
[1]
  Tmax: ~1.98 min
  blood-brain barrier passage: passes BBB easily
  uptake rate of brain: about 21.89%
[1]; [6]
  half-life: ~105 min
[1]; t1/2 in brain
  half-life: ~522 min
[2]
  rescue of HFS-induced thalamocortical LTP (normalized fEPSP slope): abolished LTP could be rescued
[3]; CHO-CCKBR cells
  EC50: ~0.05 nM
[3]; CHO-CCKBR vs CHO-CCKAR and CHO-HTR2B cells, FIG. 1
  receptor specificity of calcium response: specifically activates CCKBR
[4]
  change of GPIAS ratio pre- vs post-treatment: significantly reduces

## cholecystokinin [CCK]
[5]
  normalized fEPSP slope after injection and LFS: lead to an enhancement in fEPSP
